Data on ten molecules can be found in patent US20250197374A1, “WEE1 DEGRADING COMPOUNDS AND USES THEREOF” (BRISTOL-MYERS SQUIBB COMPANY, priority 2023, published 2025).

Type in all cases: cell-based
One assay has as its target T1, WEE1 (Homo sapiens, UniProt P30291+Q96SW2).
T1 construct: C-terminal ePL-tagged (DiscoverX, Fremont, CA) full-length WEE1 expression construct; expressed in transfected cells; host or cells: LentiX-HEK293T (Invitrogen), lentivirally transduced; the cells also over-express GSPT1-GN
Description: WEE1-ePL degradation assay (293T-LentiX, InCELL Hunter luminescence, 4 hr). The following applies: for DC50: LentiX-HEK293T cells expressing WEE1-ePL, 4 hr incubation, read-out: 293T-LentiX WEE1-ePL Degradation 4 hr EC50; for 293T-LentiX WEE1-ePL Degradation 4 hr YMin (%): lower limit of fit, % of DMSO control signal remaining. In outline: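 EC50 comes from a four-parameter logistic fit of ePL luminescence (InCELL Hunter), with DMSO control defining Ymax. Compounds ran as 10-point 3-fold dilutions from 1 or 10 µM for 4 h at 37 °C. Cells were HEK293T-LentiX with ePL-tagged full-length WEE1 and over-expressed Cereblon-resistant GSPT1-GN.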

The subject of the next assay is MKN45 cells. Description: MKN45 cell proliferation assay (Cell-Titer-Glo, 120 hr). The conditions noted are these: for EC50: Homo sapiens, MKN-45, 120 h, read-out: MKN45 Cell Prolif. 120 hr EC50; for MKN45 Cell Prolif. 120 hr YMin (%): minimal percent of DMSO control observed. In short, it runs like this:
(§1)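 Growth inhibition was read as CellTiter-Glo luminescence after 120 h at 37 °C in RPMI/10% FBS, with 400 MKN45 or 800 MDA-MB-231 cells seeded per well. Compounds were tested in 10-point half-log series starting at 1 or 10 uM (0.1% DMSO), in triplicate for MKN45 and duplicate for MDA-MB-231. EC50 values are four-parameter fits to %DMSO control, and Ymin-obs is the minimal observed %DMSO.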

The next assay relates to MDA-MB-231 cells. Description: MDA-MB-231 cell proliferation assay (Cell-Titer-Glo, 120 hr). The conditions noted are these: for EC50: Homo sapiens, MDA-MB-231, 120 h, read-out: MDA-MB 231 Cell Prolif. 120 hr EC50; for MDA-MB 231 Cell Prolif. 120 hr YMin (%): minimal percent of DMSO control observed. In outline:
as §1

One may read the EC50 as the concentration at which the effect is half-maximal.

T1 sequence (P30291 whole entry): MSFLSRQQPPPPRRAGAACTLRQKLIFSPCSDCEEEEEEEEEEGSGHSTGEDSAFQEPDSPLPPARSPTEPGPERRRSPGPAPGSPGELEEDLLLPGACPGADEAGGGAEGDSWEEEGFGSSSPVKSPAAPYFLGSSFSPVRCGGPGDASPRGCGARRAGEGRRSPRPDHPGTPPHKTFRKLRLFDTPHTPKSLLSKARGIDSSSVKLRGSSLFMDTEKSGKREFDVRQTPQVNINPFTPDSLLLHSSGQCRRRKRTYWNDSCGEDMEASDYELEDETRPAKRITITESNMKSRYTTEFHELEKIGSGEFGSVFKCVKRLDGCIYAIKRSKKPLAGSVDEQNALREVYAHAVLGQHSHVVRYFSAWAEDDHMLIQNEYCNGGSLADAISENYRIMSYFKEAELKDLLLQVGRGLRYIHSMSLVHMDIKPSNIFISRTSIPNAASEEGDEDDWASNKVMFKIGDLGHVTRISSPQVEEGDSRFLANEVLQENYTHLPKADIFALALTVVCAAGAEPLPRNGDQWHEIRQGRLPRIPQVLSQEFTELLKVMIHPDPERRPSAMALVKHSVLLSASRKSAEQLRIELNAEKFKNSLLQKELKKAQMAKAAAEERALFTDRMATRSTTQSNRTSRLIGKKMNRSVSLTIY
T1 sequence (Q96SW2 whole entry): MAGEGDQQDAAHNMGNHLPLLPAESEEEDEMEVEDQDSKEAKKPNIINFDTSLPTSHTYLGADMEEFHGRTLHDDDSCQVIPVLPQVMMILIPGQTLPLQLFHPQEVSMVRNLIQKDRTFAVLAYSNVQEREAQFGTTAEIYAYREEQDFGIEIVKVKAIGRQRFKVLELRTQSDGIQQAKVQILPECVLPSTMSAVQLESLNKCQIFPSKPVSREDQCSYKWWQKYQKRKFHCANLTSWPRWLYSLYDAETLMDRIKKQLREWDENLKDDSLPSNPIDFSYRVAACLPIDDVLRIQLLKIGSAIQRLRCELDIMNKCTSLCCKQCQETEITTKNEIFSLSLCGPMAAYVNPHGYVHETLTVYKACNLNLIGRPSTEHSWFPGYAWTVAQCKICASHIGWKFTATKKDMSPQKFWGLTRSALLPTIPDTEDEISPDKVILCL
T1 sequence (Q16531 whole entry partner): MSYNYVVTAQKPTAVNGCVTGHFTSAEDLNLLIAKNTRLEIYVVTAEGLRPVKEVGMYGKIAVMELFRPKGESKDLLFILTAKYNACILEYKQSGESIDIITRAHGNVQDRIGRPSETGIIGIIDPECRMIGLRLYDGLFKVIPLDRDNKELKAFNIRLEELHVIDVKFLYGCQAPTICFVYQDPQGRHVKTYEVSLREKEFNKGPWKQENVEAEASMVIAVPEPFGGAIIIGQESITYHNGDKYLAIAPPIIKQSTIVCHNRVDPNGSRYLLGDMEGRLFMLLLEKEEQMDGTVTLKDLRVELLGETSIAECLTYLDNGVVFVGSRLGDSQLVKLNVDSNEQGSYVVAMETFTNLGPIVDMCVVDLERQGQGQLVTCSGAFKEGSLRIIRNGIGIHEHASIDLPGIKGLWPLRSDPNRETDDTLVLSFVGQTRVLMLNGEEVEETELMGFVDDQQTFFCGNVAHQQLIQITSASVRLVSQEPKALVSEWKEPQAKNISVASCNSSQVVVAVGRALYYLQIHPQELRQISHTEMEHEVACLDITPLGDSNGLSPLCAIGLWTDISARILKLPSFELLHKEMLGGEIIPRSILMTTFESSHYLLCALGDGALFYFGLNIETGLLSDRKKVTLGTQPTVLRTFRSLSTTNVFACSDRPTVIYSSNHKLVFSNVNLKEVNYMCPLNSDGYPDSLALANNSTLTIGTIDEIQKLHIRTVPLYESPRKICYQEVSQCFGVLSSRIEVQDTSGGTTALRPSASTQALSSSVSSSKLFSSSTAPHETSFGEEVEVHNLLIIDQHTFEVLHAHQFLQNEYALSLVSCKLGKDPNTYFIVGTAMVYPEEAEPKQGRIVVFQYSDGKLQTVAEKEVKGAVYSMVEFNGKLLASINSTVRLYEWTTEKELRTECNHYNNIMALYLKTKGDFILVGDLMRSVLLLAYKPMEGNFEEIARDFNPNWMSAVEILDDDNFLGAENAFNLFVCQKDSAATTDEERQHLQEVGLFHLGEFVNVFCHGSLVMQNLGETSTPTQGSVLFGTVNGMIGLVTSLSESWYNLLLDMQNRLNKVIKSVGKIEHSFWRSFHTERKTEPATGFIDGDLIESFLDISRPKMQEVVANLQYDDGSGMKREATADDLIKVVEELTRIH

Consider `O=C1CC[C@H](N2Cc3cc(O[C@@H]4CN(Cc5ccc6nc(N7C[C@@H]8CCO[C@@H]8C7)ccc6c5)CC4(F)F)ccc3C2=O)C(=O)N1` (single isomer, unassigned) [Example 17, (S)-3-(5-(((R)-4,4-difluoro-1-((2-((3aS*,6aS*)-hexahydro-5H-furo[2,3-c]pyrrol-5-yl)quinolin-6-yl)methyl)pyrrolidin-3-yl)oxy)-1-oxoisoindolin-2-yl)piperidine-2,6-dione], for which, on WEE1, the DC50 came to 2 nM and the “293T-LentiX WEE1-ePL Degradation 4 hr YMin (%)” value stood at 25.6%. For the same molecule, in the assay on MKN45 cells, the EC50 turned out to be 5 nM and the “MKN45 Cell Prolif. 120 hr YMin (%)” value came to 13.2%. In the assay on MDA-MB-231 cells, the EC50 is 45 nM and the “MDA-MB 231 Cell Prolif. 120 hr YMin (%)” value is listed as 47.2%.
In the case of `O=C1CC[C@H](N2Cc3cc(O[C@@H]4CN(Cc5cc(F)c6nc(N7C[C@H]8CCO[C@H]8C7)ccc6c5)CC4(F)F)ccc3C2=O)C(=O)N1` (single isomer, unassigned) [Example 14, (S)-3-(5-(((R)-4,4-difluoro-1-((8-fluoro-2-((3aR*,6aR*)-hexahydro-5H-furo[2,3-c]pyrrol-5-yl)quinolin-6-yl)methyl)pyrrolidin-3-yl)oxy)-1-oxoisoindolin-2-yl)piperidine-2,6-dione], on WEE1, the DC50 came to 3 nM and the “293T-LentiX WEE1-ePL Degradation 4 hr YMin (%)” value worked out at 31.8%. Further, in the assay on MKN45 cells, the EC50 came out at 6 nM and the “MKN45 Cell Prolif. 120 hr YMin (%)” value stood at 10.2%. In the assay on MDA-MB-231 cells, the EC50 was determined as 63 nM and the “MDA-MB 231 Cell Prolif. 120 hr YMin (%)” value is 34.4%.
In the case of `COC[C@@H]1CN(Cc2cc(F)c3nc(N4CCN(C(C)=O)C5(CC5)C4)ncc3c2)C[C@H]1Oc1ccc2c(c1)CN([C@H]1CCC(=O)NC1=O)C2=O` [Example 85, (3S)-3-(5-{[(3S,4S)-1-[(2-{4-acetyl-4,7-diazaspiro[2.5]octan-7-yl}-8-fluoroquinazolin-6-yl)methyl]-4-(methoxymethyl)pyrrolidin-3-yl]oxy}-1-oxo-2,3-dihydro-1H-isoindol-2-yl)piperidine-2,6-dione], on WEE1, the DC50 was 1 nM and the “293T-LentiX WEE1-ePL Degradation 4 hr YMin (%)” value is 27.9%. Besides, in the assay with MKN45 cells, the EC50 is 1 nM and the “MKN45 Cell Prolif. 120 hr YMin (%)” value is given as 11.1%. In the assay with MDA-MB-231 cells, the EC50 came out at 22 nM and the “MDA-MB 231 Cell Prolif. 120 hr YMin (%)” value is on record as 16.6%.
As to `COC[C@@H]1CN(Cc2cc(F)c3nc(C4CC(C)OC(C)C4)ccc3c2)C[C@H]1Oc1ccc2c(c1)CN([C@H]1CCC(=O)NC1=O)C2=O` (relative stereo) [Example 52, re1-(3S)-3-(5-{[(3S,4S)-1-{[2-(2,6-dimethyloxan-4-yl)-8-fluoroquinolin-6-yl]methyl}-4-(methoxymethyl)pyrrolidin-3-yl]oxy}-1-oxo-2,3-dihydro-1H-isoindol-2-yl)piperidine-2,6-dione], on WEE1, the DC50 turned out to be 1 nM and the “293T-LentiX WEE1-ePL Degradation 4 hr YMin (%)” value is on record as 27.2%. For the same molecule, in the assay on MKN45 cells, the EC50 turned out to be 1 nM and the “MKN45 Cell Prolif. 120 hr YMin (%)” value stood at 8.3%. In the assay with MDA-MB-231 cells, the concentration giving a half-maximal response (EC50) is 12 nM and the “MDA-MB 231 Cell Prolif. 120 hr YMin (%)” value came to 16.7%.
As for `COC[C@@H]1CN(Cc2cc(F)c3nc(C4CN(C(C)=O)C4)ccc3c2)C[C@H]1Oc1ccc2c(c1)CN([C@H]1CCC(=O)NC1=O)C2=O` [Example 36, (3S)-3-(5-{[(3S,4S)-1-{[2-(1-acetylazetidin-3-yl)-8-fluoroquinolin-6-yl]methyl}-4-(methoxymethyl)pyrrolidin-3-yl]oxy}-1-oxo-2,3-dihydro-1H-isoindol-2-yl)piperidine-2,6-dione], on WEE1, the DC50 is 9 nM and the “293T-LentiX WEE1-ePL Degradation 4 hr YMin (%)” value is on record as 30.2%. In addition, in the assay on MKN45 cells, the 50% effective concentration (EC50) stood at 9 nM and the “MKN45 Cell Prolif. 120 hr YMin (%)” value was determined as 10.5%. In addition, in the assay on MDA-MB-231 cells, the EC50 is 141 nM and the “MDA-MB 231 Cell Prolif. 120 hr YMin (%)” value is listed as 32.4%.
For the molecule `COC[C@@H]1CN(Cc2cc(F)c3nc(C4(O)CCOCC4)ncc3c2)C[C@H]1Oc1ccc2c(c1)CN([C@H]1CCC(=O)NC1=O)C2=O` [Example 62, (3S)-3-(5-{[(3S,4S)-1-{[8-fluoro-2-(4-hydroxyoxan-4-yl)quinazolin-6-yl]methyl}-4-(methoxymethyl)pyrrolidin-3-yl]oxy}-1-oxo-2,3-dihydro-1H-isoindol-2-yl)piperidine-2,6-dione], at WEE1, the DC50 came out at 4 nM and the “293T-LentiX WEE1-ePL Degradation 4 hr YMin (%)” value turned out to be 31.6%. Besides, in the assay on MKN45 cells, the EC50 was determined as 7 nM and the “MKN45 Cell Prolif. 120 hr YMin (%)” value was determined as 11.9%. In the assay on MDA-MB-231 cells, the EC50 turned out to be 100 nM and the “MDA-MB 231 Cell Prolif. 120 hr YMin (%)” value was 33.0%.
On to `COC[C@@H]1CN(Cc2cc(F)c3nc(N4CCC45CCOCC5)ccc3c2)C[C@H]1Oc1ccc2c(c1)CN([C@H]1CCC(=O)NC1=O)C2=O` [Example 72, (3S)-3-(5-{[(3S,4S)-1-[(8-fluoro-2-{7-oxa-1-azaspiro [3.5]nonan-1-yl}quinolin-6-yl)methyl]-4-(methoxymethyl)pyrrolidin-3-yl]oxy}-1-oxo-2,3-dihydro-1H-isoindol-2-yl)piperidine-2,6-dione], for which, at WEE1, the DC50 stood at 1 nM and the “293T-LentiX WEE1-ePL Degradation 4 hr YMin (%)” value was found to be 27.3%. In addition, in the assay on MKN45 cells, the EC50 was 1 nM and the “MKN45 Cell Prolif. 120 hr YMin (%)” value is 9.3%. In the assay with MDA-MB-231 cells, the 50% effective concentration (EC50) stood at 14 nM and the “MDA-MB 231 Cell Prolif. 120 hr YMin (%)” value is listed as 20.7%.
`COC[C@@H]1CN(Cc2cc3ccc(C(=O)N(C)C)cc3cn2)C[C@H]1Oc1ccc2c(c1)CN([C@H]1CCC(=O)NC1=O)C2=O` [Example 115, 3-{[(3S,4S)-3-({2-[(3S)-2,6-dioxopiperidin-3-yl]-1-oxo-2,3-dihydro-1H-isoindol-5-yl}oxy)-4-(methoxymethyl)pyrrolidin-1-yl]methyl}-N,N-dimethyliso-quinoline-7-carboxamide]: on WEE1, the DC50 came to 6 nM and the “293T-LentiX WEE1-ePL Degradation 4 hr YMin (%)” value stood at 21.5%. Besides, in the assay on MKN45 cells, the EC50 came out at 9 nM and the “MKN45 Cell Prolif. 120 hr YMin (%)” value was 9.4%. Moreover, in the assay with MDA-MB-231 cells, the 50% effective concentration (EC50) worked out at 213 nM and the “MDA-MB 231 Cell Prolif. 120 hr YMin (%)” value came to 41.5%.
As for `COC[C@@H]1CN(Cc2cc(F)c3nc(N4CCN(CC(F)(F)F)CC4)ncc3c2)C[C@H]1Oc1ccc2c(c1)CN([C@H]1CCC(=O)NC1=O)C2=O` [Example 35, (3S)-3-(5-{[(3S,4S)-1-({8-fluoro-2-[4-(2,2,2-trifluoroethyl)piperazin-1-yl]quinazolin-6-yl}methyl)-4-(methoxymethyl)pyrrolidin-3-yl]oxy}-1-oxo-2,3-dihydro-1H-isoindol-2-yl)piperidine-2,6-dione], at WEE1, the DC50 is 1 nM and the “293T-LentiX WEE1-ePL Degradation 4 hr YMin (%)” value was 28.1%. Besides, in the assay on MKN45 cells, the 50% effective concentration (EC50) was 2 nM and the “MKN45 Cell Prolif. 120 hr YMin (%)” value is recorded as 10.0%. Further, in the assay with MDA-MB-231 cells, the concentration giving a half-maximal response (EC50) amounted to 33 nM and the “MDA-MB 231 Cell Prolif. 120 hr YMin (%)” value stood at 16.7%.
Consider `COC[C@@H]1CN(Cc2ccc3nc(C4CCOCC4)cnc3c2)C[C@H]1Oc1ccc2c(c1)CN([C@H]1CCC(=O)NC1=O)C2=O` [Example 136, (3S)-3-(5-{[(3S,4S)-4-(methoxymethyl)-1-{[2-(oxan-4-yl)quinoxalin-6-yl]methyl}pyrrolidin-3-yl]oxy}-1-oxo-2,3-dihydro-1H-isoindol-2-yl)piperidine-2,6-dione], for which, at WEE1, the DC50 is 2 nM and the “293T-LentiX WEE1-ePL Degradation 4 hr YMin (%)” value was 31.9%. Further, in the assay with MKN45 cells, the EC50 amounted to 41 nM and the “MKN45 Cell Prolif. 120 hr YMin (%)” value came out at 26.6%. In the assay with MDA-MB-231 cells, the EC50 amounted to 287 nM and the “MDA-MB 231 Cell Prolif. 120 hr YMin (%)” value stood at 91.8%.
